Experimental data published in patent US11311633B2, “Satiation peptides for weight loss and altered taste sensitivity” (University of Florida Research Foundation, Incorporated, priority 2016, dated 2022).

Key:
[1] = test system: mice; experiment: PYY mouth spray, food intake after 24 hours fasting; format: in vivo
Experimental: FIGS. 4A-4D depict the effects of Peptide YY Mouth Spray.
Synthetic PYY was purchased from Bachem, Inc USA (Cat #H-6042) and diluted in sterile H2O. Sterile un-used perfume sample vials (Saphora) were utilized to administer PYY in the form of a mouth spray. It was estimated that the volume of one spray approximates to about […].
Mice were conditioned three times to 24 hours fasting starting at the beginning of the dark cycle and ending at the end of the light cycle. At the end of the fasting cycle and as a part of conditioned routine, a sterile water spray had been administered into the mouth. All the experiments were done during the first hour of the dark cycle after fasting. Once the dark cycle started, mice were sprayed once with either PYY or sterile H2O in a total volume of […] per spray. After the treatment, mice were returned to their cages and ten minutes later pre-weighted chow was provided. One hour later, the amount of consumed chow had been recorded by measuring the leftover amount. When the experiments were repeated, mice were fasted only once a week with the control and experimental groups rotated.

[2] = test system: mice; experiment: Exendin-4 oral spray prior to meals, food intake; format: in vivo
From the text: PYY and GLP-1 are both produced in […] L-cells and secreted simultaneously into the blood stream in response to nutrient uptake. […] Similarly, a decrease in food intake of mice given Exendin-4 (Ex-4), a GLP-1 analog, in the form of an oral spray prior to meals was observed. Both of these peptides individually modulate body weight, we have evidence that, when used in combination, PYY and Ex-4 may have a synergistic effect on modulation of body weight.

Substance	overall 24 hr period FI, experimental vs control group ([1]; after PYY mouth spray vs sterile H2O)	PYY dose response effect to FI ([1]; mouth spray, FI measured after one hour)	less food consumed in one hour compared to control group sprayed with H2O ([1]; one mouth spray, 5 μg per 100 g of body weight, after 24 hours fasting, average)	food intake [2]
PYY: Synthetic PYY purchased from Bachem (Cat #H-6042), diluted in sterile H2O, given as mouth spray [Peptide YY]	similar	significant	15%	
Exendin-4				decrease
